The test system of one test is PDE 4. The test is described as follows: PDE 4 inhibition assay. The class given is biochemical, human. To be noted: crude PDE 4 enzyme from U937 cells; 1 μM cAMP; read-out: IC50 for inhibiting PDE 4. The procedure:
PDE 4 inhibition may be assays using any methods conventionally known in the art. For example, using a modification of the method of Hill and Mitchell [Hill and Mitchell, Faseb J., 8, A217 (1994)], U937 cells (a human promonocytic cell line) are grown to 1×10^6 cells/mL and collected by centrifugation. A cell pellet of 1×10^9 cells is washed in phosphate buffered saline and then frozen at −70° C. for later purification or immediately lysed in cold homogenization buffer (20 mM Tris-HCl, pH 7.1, 3 mM 2-mercaptoethanol, 1 mM magnesium chloride, 0.1 mM ethylene glycol-bis-(β-aminoethyl ether)-N,N,N^1,N^1-tetraacetic acid (EGTA), 1 μM phenylmethylsulfonyl fluoride (PMSF), and 1 μg/mL leupeptin). Cells are homogenized with 20 strokes in a Dounce homogenizer and the supernatant containing the cytosolic fraction are obtained by centrifugation. The supernatant is then loaded onto a Sephacryl S-200 column equilibrated in homogenization buffer. […]
The phosphodiesterase assay is carried out based on the procedure described by Hill and Mitchell. […] Each data point is carried out in duplicate and activity is expressed as percentage of control. The IC50s of the compounds are then determined from dose response curves of a minimum of three independent experiments.

The test system of the next test is TNFα. Nature of the test: TNFα inhibition assay in PBMC (LPS-stimulated). To be noted: Homo sapiens; PBMC stimulated with LPS 1 ng/ml; TNFα by ELISA; read-out: IC50 for inhibiting TNFα. The format is cell-based. The procedure: Peripheral blood mononuclear cells (PBMC) from normal donors are obtained by Ficoll Hypaque (Pharmacia, Piscataway, N.J., USA) density centrifugation. Cells are cultured in RPMI 1640 (Life Technologies, Grand Island, N.Y., USA) supplemented with 10% AB+human serum (Gemini Bio-products, Woodland, Calif., USA), 2 mM L-glutamine, 100 U/ml penicillin, and 100 μg/ml streptomycin (Life Technologies).
PBMC (2×10^5 cells) are plated in 96-well flat-bottom Costar tissue culture plates (Corning, N.Y., USA) in triplicate. Cells are stimulated with LPS (from Salmonella abortus equi, Sigma cat. no. L-1887, St. Louis, Mo. USA) at 1 ng/ml final in the absence or presence of compounds. Compounds provided herein are dissolved in DMSO (Sigma) and further dilutions are done in culture medium immediately before use. The final DMSO concentration in all assays can be about 0.25%. Compounds are added to cells 1 hour before LTS stimulation. Cells are then incubated for 18-20 hours at 37° C. in 5% CO2, and supernatants are then collected, diluted with culture medium and assayed for TNFα levels by ELISA (Endogen, Boston, Mass. USA). IC50s are calculated using non-linear regression, sigmoidal dose-response, constraining the top to 100% and bottom to 0%, allowing variable slope (GraphPad Prism v3.02).

The IC50 is the concentration that inhibits the measured activity by half. In the case of `CCOc1cc([C@@H](CS(C)(=O)=O)N2C(=O)c3cccc(NC(=O)CO)c3C2=O)ccc1OC` [(1S)—N-{2-[1-(3-Ethoxy-4-Methoxy-Phenyl)-2-Methanesulfonyl-Ethyl]-1,3-Dioxo-2,3-Dihydro-1H-Isoindol-4-yl}-2-Hydroxy-Acetamide], the IC50 in the test on PDE 4 is around 10 nM; with TNFα, around 200 nM.

(Values after patent US8853175B2, “Phenethylsulfone isoindoline derivatives and their use” (Celgene Corporation, priority 2010, dated 2014).)
